Experimental data reported in PubChem BioAssay AID375 (SRMLSC, 2006).

Target: Pantothenate synthetase (Mycobacterium tuberculosis (strain ATCC 25618 / H37Rv)) (UniProt P9WIL5)
Assay: Coupled enzyme confirmation of inhibitors against recombinant Mtb PanC (AID 375)
Details: coupled enzyme assay, measured here: PanC IC50 repeat trials

Chain of Pantothenate synthetase (Mycobacterium tuberculosis (strain ATCC 25618 / H37Rv)) (P9WIL5 whole entry, looked up): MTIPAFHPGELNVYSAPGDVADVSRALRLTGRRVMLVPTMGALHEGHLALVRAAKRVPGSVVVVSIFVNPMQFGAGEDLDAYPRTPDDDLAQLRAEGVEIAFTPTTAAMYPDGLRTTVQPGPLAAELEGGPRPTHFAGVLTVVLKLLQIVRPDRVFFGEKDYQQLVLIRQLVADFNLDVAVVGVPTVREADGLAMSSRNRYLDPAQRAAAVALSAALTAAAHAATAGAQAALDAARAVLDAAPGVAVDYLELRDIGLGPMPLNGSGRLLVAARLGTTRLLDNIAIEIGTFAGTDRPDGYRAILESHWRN

Cc1cc(C(=O)Nc2cc(C)n(Cc3ccc(Cl)cc3)n2)no1
IC50: > 100 µM

Cc1ccc(Cn2ccc(NC(=O)c3noc4c3CCCC4)n2)cc1
IC50: > 100 µM

COc1ccccc1-c1cc(C(=O)Nc2cc(C)n(Cc3ccc(Cl)cc3)n2)no1
IC50: > 100 µM

Cc1ccc(Cn2ccc(NC(=O)c3cc(-c4cccc(Cl)c4)on3)n2)cc1
IC50: > 100 µM

Cc1ccc(Cn2ccc(NC(=O)c3cc(-c4cccs4)on3)n2)cc1
IC50: > 100 µM

COc1ccc2c(c1)CCc1c(C(=O)Nc3cc(C)n(Cc4ccc(Cl)cc4)n3)noc1-2
IC50: > 100 µM

Cc1ccccc1Cn1cc(NC(=O)c2noc3c2CC(C(C)(C)C)CC3)cn1 (stereo not drawn)
IC50: 2.56 µM

COc1ccc2c(c1)CCc1c(C(=O)Nc3ccn(Cc4ccc(C)cc4)n3)noc1-2
IC50: > 100 µM

Cc1ccc(Cn2ccc(NC(=O)c3cc(-c4ccco4)on3)n2)cc1
IC50: > 100 µM

COc1cccc(-c2cc(C(=O)Nc3cc(C)n(Cc4ccc(Cl)cc4)n3)no2)c1
IC50: > 100 µM

Cc1ccc(Cn2ccc(NC(=O)c3cc(-c4ccc(Cl)cc4)on3)n2)cc1
IC50: > 100 µM

COc1ccc(-c2cc(C(=O)Nc3cc(C)n(Cc4ccc(Cl)cc4)n3)no2)cc1OC
IC50: > 100 µM

Cc1cc(NC(=O)c2cc(-c3ccco3)on2)nn1Cc1ccc(Cl)cc1
IC50: > 100 µM

Cc1ccc(Cn2ccc(NC(=O)c3noc4c3CCCCC4)n2)cc1
IC50: > 100 µM

Cc1cc(NC(=O)c2noc3c2CCCC3)nn1Cc1ccc(Cl)cc1
IC50: > 100 µM

COc1ccc(OC)c(-c2cc(C(=O)Nc3cc(C)n(Cc4ccc(Cl)cc4)n3)no2)c1
IC50: > 100 µM

Cc1ccc(Cn2ccc(NC(=O)c3cc(-c4ccccc4)on3)n2)cc1
IC50: > 100 µM

Cc1ccc(Cn2ccc(NC(=O)c3cc(-c4ccc(Br)cc4)on3)n2)cc1
IC50: > 100 µM

Cc1ccccc1Cn1nc(C)c(NC(=O)c2noc3c2CC(C(C)(C)C)CC3)c1C (stereo not drawn)
IC50: > 100 µM

Cc1cc(NC(=O)c2cc(-c3cccs3)on2)nn1Cc1ccc(Cl)cc1
IC50: > 100 µM

Cc1ccc(Cn2ccc(NC(=O)c3cc(-c4ccc(F)cc4)on3)n2)cc1
IC50: > 100 µM

Cc1cc(NC(=O)c2noc3c2CCCCC3)nn1Cc1ccc(Cl)cc1
IC50: > 100 µM

CC(C)(C)C1CCc2onc(C(=O)Nc3cnn(Cc4ccc(F)cc4)c3)c2C1 (stereo not drawn)
IC50: 1.71 µM
